Source: patent US12510533B2, “Methods for treating multiple myeloma and the use of companion biomarkers for 4-(4-(4-(((2-(2,6-dioxopiperidin-3-yl)-1-oxoisoindolin-4-yl)oxy)methyl)benzyl)piperazin-1-yl)-3-fluorobenzonitrile” (Celgene Corporation, priority 2018, dated 2025)
Like-named read-outs stand apart in the source and are kept apart here.

Experiments:
[1] = test system: OPM2 cells; assay: cells; assay type: cell-based, human; details: for IC50: Homo sapiens
Protocol: The effect of the stabilizing mutations on cell proliferation was also measured.

[2] = test system: NCI-H929 cells; assay: PBMC-induced MM cell lysis, PBMCs and MM cells both pretreated, versus single MM culture (NCI-H929); assay type: cell-based, human; details: PBMCs and MM cells both preincubated 72 hours
Protocol: Ninety-six-well dishes were pre-coated with anti-CD3 antibody (OKT3, 3 μg/mL) and incubated at 4° C. overnight before the start of the experiment. Frozen PBMC donor cells were thawed at 37° C. for 2 minutes in RPMI medium with 10% FBS and cell counts and viability were measured on the Vi-CELL analyzer. Peripheral blood mononuclear cells were washed and diluted to 1×10^6 cells/mL and dispensed into the compound-treated plates in a total volume of 200 μL. Cells were incubated with Compound 2 for 2 hours before being transferred onto anti-CD3-coated plates and incubated for an additional 72 hours. At the same time, MM cell lines (NCI-H929, H929-1051, OPM2, OPM2-P10) were diluted to a final concentration of 0.1×10^6 cells/mL and labeled with CellTrace CFSE according to manufacturer's instructions. Multiple myeloma cell lines were then dispensed into compound-treated plates at a total volume of 200 μL and incubated for 72 hours. After 72 hours, the PBMCs and MM cells were counted and transferred into a U-bottom 96-well plate at a final T:E ratio of 1:5. After 24 hours coculture, specific target cell lysis by PBMC mediated apoptosis was measured using Annexin V-AF647 and 7-AAD according to manufacturer's instructions and samples were run on the Attune NxT Cytometer. […]

[3] = test system: interferon gamma (IFN-γ); assay: IFN-γ production by TCR-activated healthy PBMCs; assay type: cell-based, human; details: 24 hours
Protocol: FIG. 21A-FIG. 21C illustrate that Compound 2 is a potent inducer of effector cytokines. […] (FIG. 21A) IL-2, (FIG. 21B) IFN-γ, and (FIG. 21C) TNF-α. Data shown are an average from three or four donors and are represented as fold change over DMSO control; error bars represent standard error of the mean (SEM).
The immunomodulatory activity of Compound 2 on T cell receptor (TCR)-activated healthy PBMCs was assessed. […] This increased in cytokine secretion was evident as early as 24 hours after introduction of Compound 2 with the peak of the effector cytokine production induced by Compound 2 being 5.5-fold for IL-2, 4.5-fold for interferon gamma (IFN-γ), and 2-fold for tumor necrosis factor alpha (TNF-α) above the vehicle control (FIG. 21A-FIG. 21C, respectively).

[4] = target: T1, Aiolos (Homo sapiens, UniProt Q96SW2+Q9UKT9); assay: Phase 1 study, Aiolos expression by flow cytometry in CD3+ T cells; assay type: in vivo; details: QD days 1-10, 15-24/28 and BID days 1-3, 15-17/28; recovered during dosing interruptions
T1 construct: expressed in transfected cells; host or cells: DF15 multiple myeloma cells
Protocol: FIG. 24A and FIG. 24B illustrate that Compound 2 induces Aiolos degradation in CD3+ T cells from peripheral blood of relapsed/refractory multiple myeloma patients after (FIG. 24A) the once daily (QD) 1-10, 15-24/28 schedule, or (FIG. 24B) the twice daily (BID) 1-3, 15-17/28 schedule.
Aiolos expression was measured by flow cytometry in CD3+ T cells before and during Compound 2 treatment in two different dosing schedules (QD administration on days 1 to 10 and days 15 to 24 of a 28 day cycle, and BID administration on days 1 to 3 and days 15 to 17 of a 28 day cycle).

[5] = test system: Aiolos, Ikaros, and ZFP91; assay: Phase 1 study, IHC of bone marrow aspirate clots; assay type: in vivo, human; details: before and during treatment (Cycle 1)
Excerpt: FIG. 26A-FIG. 26E illustrate that the effect of Compound 2 on biomarker expression in CD138+ plasma cells from relapsed/refractory multiple myeloma patients. (FIG. 26A) Aiolos, (FIG. 26B) Ikaros, (FIG. 26C) ZFP91, (FIG. 26D) c-Myc, and (FIG. 26E) IRF4.
Bone marrow aspirate samples were taken before and during Compound 2 treatment (Cycle 1). Clots were made from each sample and processed into formalin fixed paraffin embedded blocks. Immunohistochemistry (IHC) assays were used to evaluate the biomarker expression. IHC scores were determined based on percent and intensity of positive staining.

[6] = target: Ikaros (Homo sapiens, UniProt Q13422+Q96SW2); assay: Ikaros degradation in CD8+ T cells; assay type: cell-based; design: The effects of Compound 2 on the degradation of Ikaros in CD4+ and CD8+ T cells; endogenous in cells; host or cells: CD4+ and CD8+ T cells of healthy donors; CD34+ bone marrow cells of healthy donors; CD3+ T cells of multiple myeloma patients; details: 24 hours (data not shown), read-out: Ikaros degradation IC50
Protocol: The effects of Compound 2 on the degradation of Ikaros in CD4+ and CD8+ T cells over a 72 hour time course were investigated. The ability of Compound 2 to induce effector cytokine release correlated with degradation of Ikaros in CD4+ T cells, a known transcriptional repressor of IL-2 (FIG. 22A-FIG. 22C). […] The ability of Compound 2 to degrade Ikaros was also observed at the 48 and 72 hour time point in both CD4+(FIG. 22B and FIG. 22C) and CD8+ (data not shown) T cell populations. […] Thus, Ikaros and Aiolos can serve as biomarkers of T-cell activation.

Sequence of Ikaros (Q13422 whole entry): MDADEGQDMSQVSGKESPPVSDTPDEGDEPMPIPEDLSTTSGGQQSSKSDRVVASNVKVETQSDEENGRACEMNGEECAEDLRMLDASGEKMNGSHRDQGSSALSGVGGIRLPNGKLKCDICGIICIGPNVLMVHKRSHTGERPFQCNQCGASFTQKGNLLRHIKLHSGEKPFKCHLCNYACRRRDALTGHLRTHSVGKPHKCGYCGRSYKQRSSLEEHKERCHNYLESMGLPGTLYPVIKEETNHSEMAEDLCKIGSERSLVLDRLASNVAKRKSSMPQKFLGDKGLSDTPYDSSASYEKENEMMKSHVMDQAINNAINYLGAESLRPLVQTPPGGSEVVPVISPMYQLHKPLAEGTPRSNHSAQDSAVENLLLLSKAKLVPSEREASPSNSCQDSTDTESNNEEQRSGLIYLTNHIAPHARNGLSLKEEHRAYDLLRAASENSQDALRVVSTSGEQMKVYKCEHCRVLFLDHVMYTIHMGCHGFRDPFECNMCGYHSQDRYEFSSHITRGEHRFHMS
Sequence of Ikaros (Q16531 2-1140, further chain): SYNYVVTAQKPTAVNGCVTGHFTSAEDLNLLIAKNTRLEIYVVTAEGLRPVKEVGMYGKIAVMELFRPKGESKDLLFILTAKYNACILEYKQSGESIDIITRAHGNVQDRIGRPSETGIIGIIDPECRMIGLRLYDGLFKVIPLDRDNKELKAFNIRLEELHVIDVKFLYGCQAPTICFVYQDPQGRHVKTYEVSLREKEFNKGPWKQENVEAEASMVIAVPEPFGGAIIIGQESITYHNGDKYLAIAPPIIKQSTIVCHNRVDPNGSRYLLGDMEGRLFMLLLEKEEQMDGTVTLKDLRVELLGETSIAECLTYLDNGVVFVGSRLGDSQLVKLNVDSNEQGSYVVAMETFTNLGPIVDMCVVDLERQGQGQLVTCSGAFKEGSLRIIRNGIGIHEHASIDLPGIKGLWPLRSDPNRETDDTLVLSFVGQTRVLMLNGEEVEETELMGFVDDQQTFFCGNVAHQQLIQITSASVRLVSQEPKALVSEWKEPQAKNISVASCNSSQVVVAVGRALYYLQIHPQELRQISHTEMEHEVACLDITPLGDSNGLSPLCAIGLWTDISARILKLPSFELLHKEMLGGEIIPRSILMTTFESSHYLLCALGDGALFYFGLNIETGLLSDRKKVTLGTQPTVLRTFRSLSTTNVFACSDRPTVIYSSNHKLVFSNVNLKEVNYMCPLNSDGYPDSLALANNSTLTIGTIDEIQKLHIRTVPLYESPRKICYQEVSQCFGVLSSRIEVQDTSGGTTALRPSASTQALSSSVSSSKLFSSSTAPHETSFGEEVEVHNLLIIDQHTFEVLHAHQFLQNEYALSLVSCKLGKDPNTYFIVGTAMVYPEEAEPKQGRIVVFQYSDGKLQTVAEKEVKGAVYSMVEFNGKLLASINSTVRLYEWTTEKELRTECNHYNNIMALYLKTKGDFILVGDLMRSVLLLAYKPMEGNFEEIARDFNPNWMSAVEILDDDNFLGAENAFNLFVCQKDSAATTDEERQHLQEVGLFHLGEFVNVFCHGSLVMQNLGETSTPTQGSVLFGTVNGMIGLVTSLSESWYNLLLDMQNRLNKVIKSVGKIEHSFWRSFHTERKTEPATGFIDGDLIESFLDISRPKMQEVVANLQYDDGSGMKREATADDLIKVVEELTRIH
Sequence of Ikaros (Q96SW2 whole entry): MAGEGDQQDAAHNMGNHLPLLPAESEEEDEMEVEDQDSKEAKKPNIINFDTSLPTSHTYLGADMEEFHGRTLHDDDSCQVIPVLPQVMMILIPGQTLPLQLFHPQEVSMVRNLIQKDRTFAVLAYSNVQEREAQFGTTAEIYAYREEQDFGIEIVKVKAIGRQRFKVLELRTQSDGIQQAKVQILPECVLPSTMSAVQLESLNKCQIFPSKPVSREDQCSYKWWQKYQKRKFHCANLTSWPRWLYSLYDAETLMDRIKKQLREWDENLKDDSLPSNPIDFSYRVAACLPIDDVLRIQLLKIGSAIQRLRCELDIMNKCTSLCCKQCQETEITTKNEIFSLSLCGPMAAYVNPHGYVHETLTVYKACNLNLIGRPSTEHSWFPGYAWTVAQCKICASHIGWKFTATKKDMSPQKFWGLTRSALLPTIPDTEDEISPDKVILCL
T1 sequence (Q9UKT9 whole entry): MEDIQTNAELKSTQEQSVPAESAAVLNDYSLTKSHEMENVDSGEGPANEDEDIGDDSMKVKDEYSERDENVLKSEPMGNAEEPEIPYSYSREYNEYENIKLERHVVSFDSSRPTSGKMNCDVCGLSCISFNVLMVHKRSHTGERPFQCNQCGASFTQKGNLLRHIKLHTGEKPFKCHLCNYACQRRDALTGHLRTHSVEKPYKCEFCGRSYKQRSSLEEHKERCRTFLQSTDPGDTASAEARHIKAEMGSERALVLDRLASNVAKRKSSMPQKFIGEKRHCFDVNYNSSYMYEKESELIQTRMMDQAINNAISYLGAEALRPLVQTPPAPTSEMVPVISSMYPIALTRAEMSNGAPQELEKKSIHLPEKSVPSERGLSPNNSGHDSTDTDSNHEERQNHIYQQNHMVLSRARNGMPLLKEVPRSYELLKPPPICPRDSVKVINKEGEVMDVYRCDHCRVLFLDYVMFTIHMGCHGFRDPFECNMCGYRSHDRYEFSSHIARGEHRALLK
T1 sequence (Q96SW2 whole entry): as the sequence (Q96SW2 whole entry) above
T1 sequence (Q16531 2-1140, further chain): as the sequence (Q16531 2-1140, further chain) above

N#Cc1ccc(N2CCN(Cc3ccc(COc4cccc5c4CN([C@H]4CCC(=O)NC4=O)C5=O)cc3)CC2)c(F)c1 [Compound 2, (S)-4-(4-(4-(((2-(2,6-dioxopiperidin-3-yl)-1-oxoisoindolin-4-yl)oxy)methyl)benzyl)piperazin-1-yl)-3-fluorobenzonitrile]
IC50 ([1]; OPM-2, cells overexpressing stabilized Ikaros mutants (Ikaros-Q146H or Ikaros-G151A), read-out: concentration at which cells had their proliferation inhibited by 50%): > 100000 pM | IC50 ([1]; OPM-2, overexpressing Aiolos Q147H, read-out: Inhibition of Proliferation of OPM2 Cells IC50): 60 pM | IC50 ([1]; OPM-2, overexpressing Aiolos, read-out: Inhibition of Proliferation of OPM2 Cells IC50): 80 pM | IC50 ([1]; OPM-2, overexpressing Ikaros-G151A, read-out: Inhibition of Proliferation of OPM2 Cells IC50): > 100000 pM | IC50 ([1]; OPM-2, overexpressing Ikaros-Q146H, read-out: Inhibition of Proliferation of OPM2 Cells IC50): > 100000 pM | IC50 ([1]; OPM-2, overexpressing Ikaros, read-out: Inhibition of Proliferation of OPM2 Cells IC50): 130 pM | IC50 ([1]; OPM-2, overexpressing ZFP91-Q400H, read-out: Inhibition of Proliferation of OPM2 Cells IC50): 80 pM | increase of the 50% inhibitory concentration relative to the parental cells ([1]; cells overexpressing stabilized Ikaros mutants): more than 200 fold | enhancement of killing, IC50 of single MM culture versus immune and tumor cell co-culture [2]: ~7000 fold | peak IFN-γ production above the vehicle control [3]: 4.5 fold | Aiolos degradation in CD3+ T cells [4]: dose dependent | biomarker expression in the tumor compartment (IHC) [5]: induced degradation of Aiolos, Ikaros, and ZFP91 | DC50 [6]: 500 pM
